Measured values taken from ChEMBL document CHEMBL4265899, “Trisubstituted thiazoles as potent and selective inhibitors of Plasmodium falciparum protein kinase G (PfPKG)” (Bioorg Med Chem Lett, 2018).
pEC50: −log10 of the molar value.

Columns and labels:
[1] = molecular target: Ribosomal protein S6 kinase beta-1 (Homo sapiens) (UniProt P23443); assay: Inhibition of human S6K1 at 100 nM
[2] = molecular target: RAC-alpha serine/threonine-protein kinase (Homo sapiens) (UniProt P31749); assay: Inhibition of human PKBalpha at 100 nM
RAC-alpha serine/threonine-protein kinase (Homo sapiens), sequence (P31749 whole entry): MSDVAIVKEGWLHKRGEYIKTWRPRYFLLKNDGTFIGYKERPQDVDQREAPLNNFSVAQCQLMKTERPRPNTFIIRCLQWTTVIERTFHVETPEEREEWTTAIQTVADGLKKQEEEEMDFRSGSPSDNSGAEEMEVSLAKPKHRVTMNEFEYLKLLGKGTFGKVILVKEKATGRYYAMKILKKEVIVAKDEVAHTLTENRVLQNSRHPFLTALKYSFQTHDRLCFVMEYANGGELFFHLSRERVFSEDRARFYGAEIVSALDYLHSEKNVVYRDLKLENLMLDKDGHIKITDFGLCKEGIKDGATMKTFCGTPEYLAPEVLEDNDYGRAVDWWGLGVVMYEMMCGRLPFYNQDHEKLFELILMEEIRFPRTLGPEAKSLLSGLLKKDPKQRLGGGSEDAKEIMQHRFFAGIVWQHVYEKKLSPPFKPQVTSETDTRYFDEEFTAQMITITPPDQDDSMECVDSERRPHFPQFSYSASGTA

[3] = tested on: Plasmodium falciparum; assay: Antimalarial activity against Plasmodium falciparum after 48 hrs by microbeta scintillation counting-based [3H]-hypoxanthine incorporation assay; format: functional, organism-based
[4] = molecular target: Mitogen-activated protein kinase kinase kinase 7 (Homo sapiens) (UniProt O43318); assay: Inhibition of human TAK1 at 100 nM
[5] = molecular target: Serine/threonine-protein kinase Sgk1 (Homo sapiens) (UniProt O00141); assay: Inhibition of human SGK1 at 100 nM
[6] = molecular target: Myosin light chain kinase, smooth muscle (Homo sapiens) (UniProt Q15746); assay: Inhibition of human SmMLCK at 100 nM
[7] = molecular target: Tyrosine-protein kinase SYK (Homo sapiens) (UniProt P43405); assay: Inhibition of human SYK at 100 nM
[8] = molecular target: Proto-oncogene tyrosine-protein kinase Src (Homo sapiens) (UniProt P12931); assay: Inhibition of human Src at 100 nM
[9] = molecular target: Mitogen-activated protein kinase kinase kinase 11 (Homo sapiens) (UniProt Q16584); assay: Inhibition of human MLK3 at 100 nM
[10] = molecular target: Serine/threonine-protein kinase PAK 4 (Homo sapiens) (UniProt O96013); assay: Inhibition of human PAK4 at 100 nM
[11] = molecular target: Serine/threonine-protein kinase 26 (Homo sapiens) (UniProt Q9P289); assay: Inhibition of human MST4 at 100 nM
[12] = molecular target: Ephrin type-B receptor 3 (Homo sapiens) (UniProt P54753); assay: Inhibition of human EPHB3 at 100 nM
[13] = molecular target: Dual specificity mitogen-activated protein kinase kinase 1 (Homo sapiens) (UniProt Q02750); assay: Inhibition of human MKK1 at 100 nM
[14] = Metabolic stability in mouse liver microsomes assessed as compound remaining after 40 mins; format: ADME, microsome; conditions: read-out: Stability
[15] = molecular target: Tyrosine-protein kinase Lck (Homo sapiens) (UniProt P06239); assay: Inhibition of human LCK at 100 nM
Tyrosine-protein kinase Lck (Homo sapiens), sequence (P06239 2-509 limits assumed): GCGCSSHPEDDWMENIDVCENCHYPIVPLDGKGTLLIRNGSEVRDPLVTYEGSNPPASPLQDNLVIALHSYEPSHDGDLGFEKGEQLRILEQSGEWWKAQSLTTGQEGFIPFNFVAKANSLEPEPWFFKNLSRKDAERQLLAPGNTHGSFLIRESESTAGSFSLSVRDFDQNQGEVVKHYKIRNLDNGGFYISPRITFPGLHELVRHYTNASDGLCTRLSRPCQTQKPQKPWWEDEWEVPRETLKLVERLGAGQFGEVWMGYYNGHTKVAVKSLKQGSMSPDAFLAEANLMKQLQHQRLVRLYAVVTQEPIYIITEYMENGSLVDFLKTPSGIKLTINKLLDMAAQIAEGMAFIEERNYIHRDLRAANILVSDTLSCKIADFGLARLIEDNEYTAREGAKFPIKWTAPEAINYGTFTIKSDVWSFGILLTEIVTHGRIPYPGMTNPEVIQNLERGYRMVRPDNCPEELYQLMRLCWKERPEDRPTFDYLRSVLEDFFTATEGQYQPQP

[16] = molecular target: Ribosomal protein S6 kinase alpha-5 (Homo sapiens) (UniProt O75582); assay: Inhibition of human MSK1 at 100 nM
[17] = Lipophilicity, log D of the compound at pH 7.4; conditions: buffer
[18] = molecular target: CDK2/Cyclin A2 (Homo sapiens) (UniProt P24941+P20248); assay: Inhibition of human CDK2/Cyclin A at 100 nM; format: protein-complex assay
[19] = molecular target: Homeodomain-interacting protein kinase 2 (Homo sapiens) (UniProt Q9H2X6); assay: Inhibition of human HIPK2 at 100 nM
[20] = molecular target: Mitogen-activated protein kinase 3 (Homo sapiens) (UniProt P27361); assay: Inhibition of human ERK1 at 100 nM
Mitogen-activated protein kinase 3 (Homo sapiens), sequence (P27361 whole entry): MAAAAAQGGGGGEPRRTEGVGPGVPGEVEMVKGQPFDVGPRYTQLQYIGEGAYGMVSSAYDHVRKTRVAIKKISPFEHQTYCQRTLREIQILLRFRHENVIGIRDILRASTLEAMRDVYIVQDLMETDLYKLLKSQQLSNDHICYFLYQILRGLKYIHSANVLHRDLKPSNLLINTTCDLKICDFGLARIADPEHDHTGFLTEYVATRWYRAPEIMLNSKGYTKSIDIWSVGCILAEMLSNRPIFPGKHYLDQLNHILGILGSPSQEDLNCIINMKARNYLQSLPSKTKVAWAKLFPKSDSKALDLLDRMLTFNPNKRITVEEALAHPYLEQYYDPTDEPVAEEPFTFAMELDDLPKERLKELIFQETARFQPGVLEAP

[21] = molecular target: T1, Inhibitor of nuclear factor kappa-B kinase subunit epsilon (Homo sapiens) (UniProt Q14164); conditions: at 100 nM
T1 sequence (whole entry): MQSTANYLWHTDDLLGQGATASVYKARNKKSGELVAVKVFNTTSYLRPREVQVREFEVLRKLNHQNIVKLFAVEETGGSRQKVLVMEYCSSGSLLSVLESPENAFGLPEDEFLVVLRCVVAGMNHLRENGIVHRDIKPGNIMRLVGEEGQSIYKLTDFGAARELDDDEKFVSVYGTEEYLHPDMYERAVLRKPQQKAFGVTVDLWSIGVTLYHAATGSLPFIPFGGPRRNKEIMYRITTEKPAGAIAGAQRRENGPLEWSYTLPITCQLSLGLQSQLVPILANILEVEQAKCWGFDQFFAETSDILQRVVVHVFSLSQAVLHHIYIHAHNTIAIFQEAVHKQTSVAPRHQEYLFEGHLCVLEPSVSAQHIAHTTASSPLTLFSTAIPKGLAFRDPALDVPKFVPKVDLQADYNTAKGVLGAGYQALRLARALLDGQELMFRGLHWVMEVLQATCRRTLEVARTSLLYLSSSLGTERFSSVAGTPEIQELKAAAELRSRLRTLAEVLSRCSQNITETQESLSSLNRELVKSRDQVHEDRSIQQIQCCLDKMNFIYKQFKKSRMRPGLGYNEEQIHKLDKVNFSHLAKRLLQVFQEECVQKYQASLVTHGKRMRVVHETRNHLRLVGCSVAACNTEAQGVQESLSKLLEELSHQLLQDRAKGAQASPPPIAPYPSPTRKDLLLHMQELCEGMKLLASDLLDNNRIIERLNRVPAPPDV
Description: Inhibition of human IKKepsilon at 100 nM

[22] = molecular target: MAP kinase-interacting serine/threonine-protein kinase 2 (Homo sapiens) (UniProt Q9HBH9); assay: Inhibition of human MNK2 at 100 nM
[23] = molecular target: Insulin-like growth factor 1 receptor (Homo sapiens) (UniProt P08069); assay: Inhibition of human IGF1R at 100 nM
[24] = molecular target: Eukaryotic elongation factor 2 kinase (Homo sapiens) (UniProt O00418); assay: Inhibition of human EF2K at 100 nM
[25] = molecular target: NUAK family SNF1-like kinase 1 (Homo sapiens) (UniProt O60285); assay: Inhibition of human NUAK1 at 100 nM
[26] = molecular target: Insulin receptor (Homo sapiens) (UniProt P06213); assay: Inhibition of human IR at 100 nM
[27] = molecular target: Tyrosine-protein kinase Yes (Homo sapiens) (UniProt P07947); assay: Inhibition of human YES1 at 100 nM
[28] = molecular target: Serine/threonine-protein kinase Chk1 (Homo sapiens) (UniProt O14757); assay: Inhibition of human CHK1 at 100 nM
[29] = molecular target: Receptor-interacting serine/threonine-protein kinase 2 (Homo sapiens) (UniProt O43353); assay: Inhibition of human RIPK2 at 100 nM
[30] = molecular target: Glycogen synthase kinase-3 beta (Homo sapiens) (UniProt P49841); assay: Inhibition of human GSK3beta at 100 nM
Glycogen synthase kinase-3 beta (Homo sapiens), sequence (P49841 whole entry, looked up): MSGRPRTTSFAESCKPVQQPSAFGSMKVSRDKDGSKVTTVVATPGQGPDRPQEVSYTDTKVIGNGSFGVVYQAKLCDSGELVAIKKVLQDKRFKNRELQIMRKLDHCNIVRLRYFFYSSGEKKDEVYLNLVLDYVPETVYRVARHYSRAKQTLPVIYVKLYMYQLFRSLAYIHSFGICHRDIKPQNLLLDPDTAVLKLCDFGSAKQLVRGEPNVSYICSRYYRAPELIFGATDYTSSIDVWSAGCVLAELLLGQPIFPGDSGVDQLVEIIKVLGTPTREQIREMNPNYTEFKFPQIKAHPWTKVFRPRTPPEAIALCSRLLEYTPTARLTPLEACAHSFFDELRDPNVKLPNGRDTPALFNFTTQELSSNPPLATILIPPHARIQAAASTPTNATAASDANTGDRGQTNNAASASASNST

[31] = molecular target: High affinity nerve growth factor receptor (Homo sapiens) (UniProt P04629); assay: Inhibition of human TrkA at 100 nM
[32] = molecular target: Tyrosine-protein kinase CSK (Homo sapiens) (UniProt P41240); assay: Inhibition of human CSK at 100 nM
Tyrosine-protein kinase CSK (Homo sapiens), sequence (P41240 2-450 limits assumed): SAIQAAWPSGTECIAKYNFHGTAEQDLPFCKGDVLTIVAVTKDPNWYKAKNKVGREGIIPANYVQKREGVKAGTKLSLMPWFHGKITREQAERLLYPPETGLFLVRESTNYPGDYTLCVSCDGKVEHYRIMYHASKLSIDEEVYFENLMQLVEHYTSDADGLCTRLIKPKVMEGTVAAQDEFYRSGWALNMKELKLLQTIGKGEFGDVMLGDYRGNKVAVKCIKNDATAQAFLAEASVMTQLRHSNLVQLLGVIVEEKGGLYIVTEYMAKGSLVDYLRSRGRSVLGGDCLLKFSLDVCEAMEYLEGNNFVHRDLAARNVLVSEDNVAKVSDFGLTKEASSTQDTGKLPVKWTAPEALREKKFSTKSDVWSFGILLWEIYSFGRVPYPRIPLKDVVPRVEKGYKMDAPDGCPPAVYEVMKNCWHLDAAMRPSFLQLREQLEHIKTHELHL

[33] = molecular target: Ribosomal protein S6 kinase alpha-1 (Homo sapiens) (UniProt Q15418); assay: Inhibition of human RSK1 at 100 nM
[34] = molecular target: Tyrosine-protein kinase JAK2 (Homo sapiens) (UniProt O60674); assay: Inhibition of human JAK2 at 100 nM
[35] = molecular target: Ephrin type-A receptor 2 (Homo sapiens) (UniProt P29317); assay: Inhibition of human EPHA2 at 100 nM
Ephrin type-A receptor 2 (Homo sapiens), sequence (P29317 whole entry): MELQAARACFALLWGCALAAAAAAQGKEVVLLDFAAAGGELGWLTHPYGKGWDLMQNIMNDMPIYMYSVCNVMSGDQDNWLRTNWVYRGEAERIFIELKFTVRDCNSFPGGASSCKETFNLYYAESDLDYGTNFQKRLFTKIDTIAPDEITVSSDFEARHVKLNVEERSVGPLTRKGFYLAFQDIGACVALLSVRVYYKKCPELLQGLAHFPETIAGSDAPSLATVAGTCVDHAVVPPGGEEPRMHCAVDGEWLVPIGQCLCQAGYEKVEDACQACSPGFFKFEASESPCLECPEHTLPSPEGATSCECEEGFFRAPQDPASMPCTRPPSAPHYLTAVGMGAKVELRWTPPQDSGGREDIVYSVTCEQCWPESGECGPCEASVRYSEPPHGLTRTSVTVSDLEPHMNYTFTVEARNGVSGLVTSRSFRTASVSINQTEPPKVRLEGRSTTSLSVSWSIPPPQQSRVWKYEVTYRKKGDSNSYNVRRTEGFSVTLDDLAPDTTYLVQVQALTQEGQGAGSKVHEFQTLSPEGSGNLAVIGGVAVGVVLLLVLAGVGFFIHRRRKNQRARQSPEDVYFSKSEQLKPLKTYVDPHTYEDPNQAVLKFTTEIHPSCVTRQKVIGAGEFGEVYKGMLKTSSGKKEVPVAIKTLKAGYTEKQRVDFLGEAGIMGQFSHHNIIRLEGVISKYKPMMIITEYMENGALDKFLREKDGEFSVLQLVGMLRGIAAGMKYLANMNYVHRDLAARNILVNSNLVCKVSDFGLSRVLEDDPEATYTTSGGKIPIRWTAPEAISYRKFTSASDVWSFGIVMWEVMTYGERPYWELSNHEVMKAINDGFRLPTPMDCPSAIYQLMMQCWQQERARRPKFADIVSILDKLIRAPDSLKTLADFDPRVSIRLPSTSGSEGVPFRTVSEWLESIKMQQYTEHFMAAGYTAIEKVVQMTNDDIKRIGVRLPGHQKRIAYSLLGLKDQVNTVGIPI

[36] = molecular target: SRSF protein kinase 1 (Homo sapiens) (UniProt Q96SB4); assay: Inhibition of human SRPK1 at 100 nM
SRSF protein kinase 1 (Homo sapiens), sequence (Q96SB4 whole entry): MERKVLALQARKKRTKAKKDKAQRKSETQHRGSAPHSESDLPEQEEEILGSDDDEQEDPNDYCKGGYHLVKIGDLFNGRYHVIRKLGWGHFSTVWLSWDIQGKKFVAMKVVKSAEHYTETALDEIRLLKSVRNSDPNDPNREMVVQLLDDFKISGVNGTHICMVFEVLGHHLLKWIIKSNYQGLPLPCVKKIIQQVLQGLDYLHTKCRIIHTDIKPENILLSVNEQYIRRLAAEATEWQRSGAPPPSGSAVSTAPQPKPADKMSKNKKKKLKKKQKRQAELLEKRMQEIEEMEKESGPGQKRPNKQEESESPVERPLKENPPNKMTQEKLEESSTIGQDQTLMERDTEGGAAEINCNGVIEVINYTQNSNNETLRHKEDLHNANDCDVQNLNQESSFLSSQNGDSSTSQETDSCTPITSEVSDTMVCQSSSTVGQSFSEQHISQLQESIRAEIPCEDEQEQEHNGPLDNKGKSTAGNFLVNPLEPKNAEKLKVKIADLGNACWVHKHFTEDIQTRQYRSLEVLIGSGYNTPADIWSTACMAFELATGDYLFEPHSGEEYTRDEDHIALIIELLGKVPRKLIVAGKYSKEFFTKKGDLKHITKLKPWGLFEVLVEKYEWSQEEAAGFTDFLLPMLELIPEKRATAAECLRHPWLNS

[37] = molecular target: Dual specificity protein kinase TTK (Homo sapiens) (UniProt P33981); assay: Inhibition of human TTK at 100 nM
Dual specificity protein kinase TTK (Homo sapiens), sequence (P33981 whole entry): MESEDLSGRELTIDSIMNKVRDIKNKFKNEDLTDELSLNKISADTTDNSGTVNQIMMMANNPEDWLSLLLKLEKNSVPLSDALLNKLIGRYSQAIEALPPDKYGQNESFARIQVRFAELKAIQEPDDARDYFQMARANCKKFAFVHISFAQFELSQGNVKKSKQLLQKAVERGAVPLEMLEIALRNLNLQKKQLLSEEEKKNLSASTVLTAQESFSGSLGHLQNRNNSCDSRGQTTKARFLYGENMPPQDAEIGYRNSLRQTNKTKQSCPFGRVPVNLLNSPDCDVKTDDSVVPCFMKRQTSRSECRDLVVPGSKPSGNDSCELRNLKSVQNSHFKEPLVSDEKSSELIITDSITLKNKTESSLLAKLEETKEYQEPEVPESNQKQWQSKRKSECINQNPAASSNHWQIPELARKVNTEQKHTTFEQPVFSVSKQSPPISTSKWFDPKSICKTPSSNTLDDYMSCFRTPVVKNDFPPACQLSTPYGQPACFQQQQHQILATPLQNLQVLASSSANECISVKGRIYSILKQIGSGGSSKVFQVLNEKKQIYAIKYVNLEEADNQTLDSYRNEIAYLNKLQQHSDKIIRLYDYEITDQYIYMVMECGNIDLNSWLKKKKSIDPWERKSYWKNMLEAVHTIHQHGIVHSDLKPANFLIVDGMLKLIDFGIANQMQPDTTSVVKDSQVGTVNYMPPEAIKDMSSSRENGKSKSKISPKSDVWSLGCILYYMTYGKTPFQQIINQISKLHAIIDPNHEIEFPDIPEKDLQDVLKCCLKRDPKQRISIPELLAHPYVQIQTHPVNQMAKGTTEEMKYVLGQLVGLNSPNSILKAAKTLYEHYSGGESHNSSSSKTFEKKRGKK

Row | SMILES | inhibition [1] | inhibition [2] | pEC50 [3] | inhibition [4] | inhibition [5] | inhibition [6] | inhibition [7] | inhibition [8] | inhibition [9] | inhibition [10] | inhibition [11] | inhibition [12] | inhibition [13] | remaining at 40 min [14] | inhibition [15] | inhibition [16] | logD [17] | inhibition [18] | inhibition [19] | inhibition [20] | other results
1 | CN1CCC(c2nc(-c3cccc(S(C)(=O)=O)c3)c(-c3ccnc(Nc4ccc(N5CCNCC5)cc4)n3)s2)CC1 | < 70% | < 70% | 6.98 | < 70% | < 70% | < 70% | < 70% | < 70% | < 70% | < 70% | < 70% | < 70% | < 70% | 89% | < 70% | < 70% | 0.3 | < 70% | < 70% | < 70% | inhibition [21]: < 70%; inhibition [22]: < 70%; inhibition [23]: < 70%; inhibition [24]: < 70%; inhibition [25]: < 70%; inhibition [26]: < 70%; inhibition [27]: < 70%; inhibition [28]: < 70%; inhibition [29]: 70 to 90%; inhibition [30]: < 70%; inhibition [31]: < 70%; inhibition [32]: < 70%; inhibition [33]: < 70%; inhibition [34]: < 70%; inhibition [35]: < 70%; inhibition [36]: < 70%; inhibition [37]: < 70%
2 | CN1CCC(c2nc(-c3ccc(F)c(NS(C)(=O)=O)c3)c(-c3ccnc(NCC4CC4)n3)s2)CC1 | < 70% | < 70% | 6.95 | < 70% | < 70% | < 70% | < 70% | < 70% | < 70% | < 70% | < 70% | < 70% | < 70% | 89% | < 70% | < 70% | 1.9 | < 70% | < 70% | < 70% | inhibition [21]: < 70%; inhibition [22]: < 70%; inhibition [23]: < 70%; inhibition [24]: < 70%; inhibition [25]: < 70%; inhibition [26]: < 70%; inhibition [27]: < 70%; inhibition [28]: < 70%; inhibition [29]: < 70%; inhibition [30]: < 70%; inhibition [31]: < 70%; inhibition [32]: < 70%; inhibition [33]: < 70%; inhibition [34]: < 70%; inhibition [35]: < 70%; inhibition [36]: < 70%; inhibition [37]: < 70%
